Test results: patent publication US9187487B2, “Azaindole derivatives as tyrosine kinase inhibitors” (PRINCIPIA BIOPHARMA, INC., priority 2011, dated 2015)

molecular target: recombinant JAK3 (catalytic domain, aa 781-1124) (Homo sapiens (Human), UniProt P52333); assay: JAK3 Caliper Peptide Phosphorylation Assay; type: biochemical; conditions: fluorescently labeled Srctide substrate 1 uM; ATP at 1×Km (2 uM); 2 hours at 25° C.
Protocol: JAK3 Caliper Peptide Phosphorylation Assay
Phosphorylation of the appropriate peptide substrate (fluorescently labeled Srctide) by recombinant JAK3 (catalytic domain, aa 781-1124) was measured in the presence and absence of different concentrations of test compounds. Test compound, enzyme, fluorescently labeled substrate, and cofactors (ATP and Mg^2+) were combined in a well of a microtiter plate and incubated for 2 hours at 25° C. The composition of the reaction buffer was 100 mM HEPES pH 7.5, 5 mM MgCl2, 0.01% Triton-X 100, 0.1% Bovine Serum Albumin, and 1% DMSO. Enzyme concentration in the final reaction mixture was 0.5 nM while peptide substrate was at 1 uM. ATP was used at 1×Km concentration corresponding to 2 uM. Serial dilutions (3-fold steps) of compounds were prepared in DMSO. At the end of the incubation, the reaction was stopped by the addition of 20 mM EDTA. Substrate and product (i.e. phosphorylated substrate) were separated electrophoretically and both were quantified by fluorescence intensity using the microfluidics-based LabChip 3000 Drug Discovery System from Caliper Life Sciences. Conversion for each well was calculated and plotted as function of test compound concentration. IC50 value was determined by fitting the data to a 4-parameter logistic model by non-linear regression (XLfit model 205). In every assay, Staurosporine was tested in the same manner as reference compound. Selectivity for JAK3 was determined using commercially available kinase cross-screening services (DiscoveRx, San Diego, Calif.).

Chain of recombinant JAK3 (catalytic domain, aa 781-1124) (P52333 781-1124): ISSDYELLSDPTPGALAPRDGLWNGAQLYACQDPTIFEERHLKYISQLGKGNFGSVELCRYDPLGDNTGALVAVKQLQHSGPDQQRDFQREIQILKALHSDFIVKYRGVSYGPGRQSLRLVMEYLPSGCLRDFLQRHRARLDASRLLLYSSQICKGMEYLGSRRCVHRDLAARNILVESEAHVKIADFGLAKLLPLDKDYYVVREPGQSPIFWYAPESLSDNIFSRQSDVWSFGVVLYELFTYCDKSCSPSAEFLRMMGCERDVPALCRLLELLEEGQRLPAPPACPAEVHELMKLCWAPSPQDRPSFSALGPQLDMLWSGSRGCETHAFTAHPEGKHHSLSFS

Row | SMILES | IC50 [nM]
1 | CN(C)C(=O)C(C#N)=Cc1ccc(Nc2cnc3[nH]cc(C(=O)C(C)(C)C)c3n2)cn1 [compound 70, 2-cyano-N,N-dimethyl-3-(5-((7-pivaloyl-5H-pyrrolo[2,3-b]pyrazin-2-yl)amino)pyridin-2-yl)acrylamide] | 0.9
2 | Cc1c(C=C(C#N)C(=O)N(C)C)cccc1Nc1ncnc2[nH]ccc12 [compound 16, 3-(3-((7H-pyrrolo[2,3-d]pyrimidin-4-yl)amino)-2-methylphenyl)-2-cyano-N,N-dimethylacrylamide] | 1270
3 | CCN1C(=O)SC(=Cc2ccc(Nc3cnc4[nH]cc(C(=O)C(C)(C)C)c4n3)cc2)C1=O [compound 78, 3-ethyl-5-(4-((7-pivaloyl-5H-pyrrolo[2,3-b]pyrazin-2-yl)amino)benzylidene)thiazolidine-2,4-dione] | 33.5
4 | COc1c(C=C(C#N)C(=O)N(C)C)cccc1Nc1ncnc2[nH]ccc12 [compound 15, 3-(3-((7H-pyrrolo[2,3-d]pyrimidin-4-yl)amino)-2-methoxyphenyl)-2-cyano-N,N-dimethylacrylamide] | 2200
5 | CC(C)(C)C(=O)c1c[nH]c2ncc(Nc3ccc(C=C(C#N)C(=O)N4CCC4)cc3)nc12 [compound 62, 2-(azetidine-1-carbonyl)-3-(4-((7-pivaloyl-5H-pyrrolo[2,3-b]pyrazin-2-yl)amino)phenyl)acrylonitrile] | 0.4
6 | CN(C)C(=O)C(C#N)=Cc1ccc(Nc2cnc3[nH]cc(C(=O)C(C)(C)C)c3n2)cc1Cl [compound 68, 3-(2-chloro-4-(7-pivaloyl-5H-pyrrolo-[2,3-b]pyrazin-2-ylamino)phenyl)-2-cyano-N,N-dimethylacrylamide] | 1
7 | CC(C)(C)C(=O)c1c[nH]c2ncc(Nc3ccc(C=C(C#N)C(=O)N4CCCCC4)cc3)nc12 [compound 76, 2-(piperidine-1-carbonyl)-3-(4-((7-pivaloyl-5H-pyrrolo[2,3-b]pyrazin-2-yl)amino)phenyl)-acrylonitrile] | 1
8 | CC(C)NC(=O)c1c[nH]c2ncc(Nc3ccc(C=C(C#N)C(=O)N4CCNCC4)cc3)nc12 [compound 83, 2-((4-(2-cyano-3-oxo-3-(piperazin-1-yl)prop-1-en-1-yl)phenyl)amino)-N-isopropyl-5H-pyrrolo[2,3-b]pyrazine-7-carboxamide] | 0.2
9 | CN(C)C(=O)C(C#N)=Cc1cccc(N(C)c2ncnc3[nH]ccc23)c1 [compound 4, 2-cyano-N,N-dimethyl-3-(3-(methyl(7H-pyrrolo[2,3-d]pyrimidin-4-yl)amino)phenyl)acrylamide] | > 1000
